The EC50 is the midpoint of the concentration-response curve. Low readings indicate an effect from little substance, high ones a need for much substance.

The target of one experiment is T1, human TLR7 (hTLR7) (Homo sapiens, UniProt Q9NYK1).
T1 construct: host or cells: HEK-Blue TLR7 cells (engineered human embryonic kidney cells)
T1 sequence (Q9NYK1 27-1049): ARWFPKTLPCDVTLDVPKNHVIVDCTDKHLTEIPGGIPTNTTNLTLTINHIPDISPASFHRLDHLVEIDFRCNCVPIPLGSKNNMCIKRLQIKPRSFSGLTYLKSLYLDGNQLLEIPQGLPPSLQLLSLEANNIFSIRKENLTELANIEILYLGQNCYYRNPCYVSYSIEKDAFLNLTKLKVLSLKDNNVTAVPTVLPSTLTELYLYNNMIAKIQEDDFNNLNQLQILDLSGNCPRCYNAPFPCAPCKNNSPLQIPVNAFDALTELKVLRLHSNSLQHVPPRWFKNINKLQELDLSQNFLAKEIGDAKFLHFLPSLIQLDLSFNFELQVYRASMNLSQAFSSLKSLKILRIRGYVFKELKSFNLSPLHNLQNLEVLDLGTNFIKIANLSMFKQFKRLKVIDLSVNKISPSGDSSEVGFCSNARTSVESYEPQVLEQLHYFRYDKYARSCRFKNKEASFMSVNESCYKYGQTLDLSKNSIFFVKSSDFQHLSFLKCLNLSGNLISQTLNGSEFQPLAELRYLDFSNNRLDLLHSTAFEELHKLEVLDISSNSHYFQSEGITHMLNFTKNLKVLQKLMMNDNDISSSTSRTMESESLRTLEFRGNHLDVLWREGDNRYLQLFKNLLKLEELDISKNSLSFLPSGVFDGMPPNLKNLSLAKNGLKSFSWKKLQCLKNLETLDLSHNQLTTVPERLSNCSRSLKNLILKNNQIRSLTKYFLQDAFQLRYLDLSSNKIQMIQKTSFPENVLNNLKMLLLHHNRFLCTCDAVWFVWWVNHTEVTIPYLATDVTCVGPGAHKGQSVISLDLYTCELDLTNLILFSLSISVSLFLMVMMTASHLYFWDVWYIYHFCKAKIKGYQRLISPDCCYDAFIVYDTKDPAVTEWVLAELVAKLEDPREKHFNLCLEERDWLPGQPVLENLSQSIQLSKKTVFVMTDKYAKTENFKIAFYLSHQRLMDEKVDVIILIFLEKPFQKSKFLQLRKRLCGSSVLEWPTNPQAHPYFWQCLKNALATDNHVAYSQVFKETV
As to the kind of experiment: Human TLR7 agonist activity assay (HEK-Blue TLR7 SEAP reporter). The experiment is classed as cell-based. As to conditions: HEK-Blue TLR7 cells, 18 h incubation, Quanti-Blue, OD 620 nm, some values average of multiple measurements. The method, then:
(§1) This procedure describes a method for assaying human TLR7 (hTLR7) and human TLR8 (hTLR8) agonist activity of the compounds disclosed herein.
HEK-Blue™ TLR7 cells were added to each well of a 384-well tissue-culture plate (15,000 cells per well) and incubated 16-18 h at 37° C., 5% CO2. Compounds (100 nL) were dispensed into wells containing the HEK-Blue™ TLR cells and the treated cells were incubated at 37° C., 5% CO2. After 18 h, ten microliters 5 of freshly prepared Quanti-Blue™ reagent (Invivogen) was added to each well and incubated for 30 min (37° C., […]). SLAP levels were measured using an Envision plate reader (OD=620 nm). The half maximal effective concentration values (ECSO; compound concentration which induced a response halfway between the assay baseline and maximum) were calculated. Some of the reported activities were the average of multiple measurements.

A further experiment addresses T2, human TLR8 (hTLR8) (Homo sapiens, UniProt Q9NR97).
T2 construct: expressed in transfected cells
T2 sequence (Q9NR97 27-1041): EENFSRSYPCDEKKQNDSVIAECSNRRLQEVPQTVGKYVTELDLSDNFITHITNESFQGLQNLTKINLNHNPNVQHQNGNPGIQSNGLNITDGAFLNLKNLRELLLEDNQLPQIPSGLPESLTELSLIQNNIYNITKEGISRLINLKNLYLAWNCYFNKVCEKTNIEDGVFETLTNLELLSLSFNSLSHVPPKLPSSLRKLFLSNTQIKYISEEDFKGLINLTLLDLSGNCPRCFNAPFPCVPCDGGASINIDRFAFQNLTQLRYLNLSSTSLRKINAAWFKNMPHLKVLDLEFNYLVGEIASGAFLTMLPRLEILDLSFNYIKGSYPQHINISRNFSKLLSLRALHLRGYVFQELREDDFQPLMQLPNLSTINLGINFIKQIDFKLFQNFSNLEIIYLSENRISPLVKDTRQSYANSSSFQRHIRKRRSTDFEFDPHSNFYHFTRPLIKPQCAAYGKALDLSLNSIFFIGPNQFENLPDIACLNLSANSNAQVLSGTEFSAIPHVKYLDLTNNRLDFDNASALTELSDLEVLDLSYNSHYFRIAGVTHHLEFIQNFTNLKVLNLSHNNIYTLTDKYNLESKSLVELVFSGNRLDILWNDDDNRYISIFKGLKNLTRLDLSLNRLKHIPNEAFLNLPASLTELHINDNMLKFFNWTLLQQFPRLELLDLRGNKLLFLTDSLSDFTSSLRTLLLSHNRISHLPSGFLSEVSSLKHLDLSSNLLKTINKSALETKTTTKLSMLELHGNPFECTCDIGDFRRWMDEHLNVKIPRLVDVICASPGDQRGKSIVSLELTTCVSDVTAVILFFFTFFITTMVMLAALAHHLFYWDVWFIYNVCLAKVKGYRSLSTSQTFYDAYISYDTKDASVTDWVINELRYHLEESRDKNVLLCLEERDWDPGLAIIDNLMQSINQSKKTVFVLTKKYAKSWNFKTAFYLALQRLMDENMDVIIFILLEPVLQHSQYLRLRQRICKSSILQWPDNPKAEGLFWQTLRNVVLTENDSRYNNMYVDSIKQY
As to the kind of experiment: Human TLR8 agonist activity assay (measured in a similar manner). The format is cell-based. As to conditions: HEK-Blue TLR cells, SEAP reporter, measured in a similar manner to TLR7; some values average of multiple measurements. Here is the method: as §1
HEK-Blue™ TLR7 cells were added to each well of a 384-well tissue-culture plate (15,000 cells per well) and incubated 16-18 h at 37° C., 5% CO2. Compounds (100 nL) were dispensed into wells containing the HEK-Blue™ TLR cells and the treated cells were incubated at 37° C., 5% CO2. After 18 h, ten microliters 5 of freshly prepared Quanti-Blue™ reagent (Invivogen) was added to each well and incubated for 30 min (37° C., […]). SLAP levels were measured using an Envision plate reader (OD=620 nm). […] Some of the reported activities were the average of multiple measurements.
TLR8 activity was measured in a similar manner.

With `CCCCN(CCO)c1nc(N)nc2cn(Cc3ccc(CNC4CCOCC4)cc3C(F)F)nc12` [Compound 100], the results for the EC50 at human TLR7 (hTLR7) and on human TLR8 (hTLR8) were 1.76 µM and 1.42 µM, respectively.

With `CCCCN(CCO)c1nc(N)nc2cn(Cc3c(F)cc(CNCC(C)(C)O)cc3OC)nc12` [Compound 81], the EC50 at human TLR7 (hTLR7) was 1 µM; on human TLR8 (hTLR8) it was 1.43 µM.

With `CCCCN(c1nc(N)nc2cn(Cc3ccc(CN4CCCCC4)cc3OC)nc12)C(C)CO` (stereo not drawn) [Compound 50], the 50% effective concentration (EC50) at human TLR7 (hTLR7) was determined as 0.374 µM; on human TLR8 (hTLR8) it was 0.949 µM.

With `CCCCN(c1nc(N)nc2cn(Cc3c(F)cc(C4CCN(C5CC6(COC6)C5)CC4)cc3OC)nc12)C(C)CO` (stereo not drawn) [Compound 164], the EC50 at human TLR7 (hTLR7) amounted to 0.196 µM; at human TLR8 (hTLR8), 0.614 µM.

Turning to `CCCCN(CCO)c1nc(N)nc2cn(Cc3ccc(CN[C@H]4C[C@H](OCC)C4)cc3OC)nc12` [Compound 101], the values for the EC50 on human TLR7 (hTLR7) and on human TLR8 (hTLR8) were 1.6 µM and 1.57 µM, respectively.

Consider `CCCCN(CCO)c1nc(N)nc2cn(Cc3ccc(CN[C@H]4CC[C@H](CO)CC4)cc3C(F)F)nc12` [Compound 131], for which the EC50 at human TLR7 (hTLR7) was 1.28 µM; on human TLR8 (hTLR8), 3.33 µM.

For `CCCCN(CCO)c1nc(N)nc2cn(Cc3ccc(CNC4CCC4)n4ncnc34)nc12` [Compound 175, 2-((5-Amino-2-((5-((cyclobutylamino)methyl)-[1,2,4]triazolo[1,5-a]pyridin-8-yl)methyl)-2H-pyrazolo[4,3-d]pyrimidin-7-yl)(butyl)amino)ethan-1-ol], the EC50 turned out to be 0.307 µM at human TLR7 (hTLR7) and 0.328 µM at human TLR8 (hTLR8).

Consider `CCCCN(CCO)c1nc(N)nc2cn(Cc3ccc(CN[C@@H]4CCOC4)cc3OC)nc12` [Compound 53], for which the figures for the EC50 at human TLR7 (hTLR7) and on human TLR8 (hTLR8) were 0.731 µM and 0.486 µM, respectively.

`CCCCN(CCO)c1nc(N)nc2cn(Cc3ccc(CN4CC(O)C4)cc3OC)nc12` [Compound 20]: the EC50 on human TLR7 (hTLR7) was found to be 1.18 µM; at human TLR8 (hTLR8), 0.705 µM.

In the case of `CCCCN(CCO)c1nc(N)nc2cn(Cc3c(F)cc(C4=CCNCC4)cc3OC)nc12` [Compound 15], the EC50 on human TLR7 (hTLR7) worked out at 0.688 µM; at human TLR8 (hTLR8), 2.51 µM.

In the case of `CCCCN(CCO)c1nc(N)nc2cn(Cc3cc(OC)c(C4CCN(C5CC6(COC6)C5)CC4)cc3OC)nc12` [Compound 109], the values for the half-maximal effective concentration (EC50) at human TLR7 (hTLR7) and at human TLR8 (hTLR8) were 1.46 µM and 1.99 µM, respectively.

As to `CCCCN(CCO)c1nc(N)nc2cn(Cc3ccc(CNCC)cc3OC)nc12` [Compound 17], the EC50 on human TLR7 (hTLR7) was determined as 1.15 µM; at human TLR8 (hTLR8), 0.745 µM.

With `CCCCN(CCO)c1nc(N)nc2cn(Cc3ccc(CNC4CCOC(C)(C)C4)cc3OC)nc12` (racemic) [Compound 103, 2-((5-Amino-2-(4-(((2,2-dimethyltetrahydro-2H-pyran-4-yl)amino)methyl)-2-methoxybenzyl)-2H-pyrazolo[4,3-d]pyrimidin-7-yl)(butyl)amino) ethan-1-ol], the EC50 at human TLR7 (hTLR7) came out at 0.322 µM; on human TLR8 (hTLR8), 0.202 µM.

Consider `CCCCN(CCO)c1nc(N)nc2cn(Cc3ccc(CNC4CCC4)c4cn[nH]c34)nc12` [Compound 207], for which the values for the EC50 on human TLR7 (hTLR7) and on human TLR8 (hTLR8) were 2.38 µM and 1.18 µM, respectively.

With `CCCCN(CCO)c1nc(N)nc2cn(Cc3ccc(CNC4CCOC(C)C4)cc3OC)nc12` (single isomer, unassigned) [Compound 122], the EC50 was 0.561 µM on human TLR7 (hTLR7) and 0.189 µM on human TLR8 (hTLR8).

Take `CCCCN(CCO)c1nc(N)nc2cn(Cc3c(F)cc(CNCCO)cc3OC)nc12` [Compound 72]: the concentration for a half-maximal effect (EC50) on human TLR7 (hTLR7) is 0.738 µM; on human TLR8 (hTLR8), 0.835 µM.

Consider `CCCCN(CCO)c1nc(N)nc2cn(Cc3ccc(CN[C@H]4CCCN(C)C4)c4cccnc34)nc12` [Compound 168], for which the EC50 turned out to be 0.587 µM at human TLR7 (hTLR7) and 1.1 µM at human TLR8 (hTLR8).

Consider `CCCCN(CCO)c1nc(N)nc2cn(Cc3c(F)cc(C4=CCC(N(CCO)CCO)CC4)cc3OC)nc12` (stereo not drawn) [Compound 197], for which the EC50 on human TLR7 (hTLR7) was 0.57 µM; at human TLR8 (hTLR8), 2.74 µM.

In the case of `CCCCN(CCO)c1nc(N)nc2cn(Cc3ccc(CN[C@@H]4CCOC4)n4ccnc34)nc12` [Compound 187, (R)-2-((5-Amino-2-((5-(((tetrahydrofuran-3-yl)amino)methyl)imidazo[1,2-a]pyridin-8-yl)methyl)-2H-pyrazolo[4,3-d]pyrimidin-7-yl)(butyl)amino) ethan-1-ol], the concentration for a half-maximal effect (EC50) at human TLR7 (hTLR7) came to 0.674 µM; on human TLR8 (hTLR8) it was 0.86 µM.

`CCCCN(CCO)c1nc(N)nc2cn(Cc3ccc(CN[C@H]4CCN(C(C)C)C4)cc3OC)nc12` [Compound 56]: the concentration giving a half-maximal response (EC50) at human TLR7 (hTLR7) is 1.7 µM; at human TLR8 (hTLR8) it was 2.31 µM.

On to `CCCCN(CCO)c1nc(N)nc2cn(Cc3c(OC)cc(CNCCOC)cc3OC)nc12` [Compound 143], for which the EC50 on human TLR7 (hTLR7) amounted to 1.7 µM; at human TLR8 (hTLR8), 1.87 µM.

On to `CCCCN(CCO)c1nc(N)nc2cn(Cc3c(F)cc(N4CCC(NC5CC6(COC6)C5)CC4)cc3F)nc12` [Compound 133], for which the EC50 stood at 0.513 µM at human TLR7 (hTLR7) and 2.1 µM at human TLR8 (hTLR8).

With `CCCCN(CCO)c1nc(N)nc2cn(Cc3c(F)cc(C4=CC[C@@H](NC5CC6(COC6)C5)CC4)cc3OC)nc12` [Compound 194], the EC50 on human TLR7 (hTLR7) stood at 0.422 µM; on human TLR8 (hTLR8) it was 1.13 µM.

Regarding `CCCCN(CCO)c1nc(N)nc2cn(Cc3c(F)cc(CN[C@H]4C[C@@H](OC)C4)cc3F)nc12` [Compound 118], the EC50 on human TLR7 (hTLR7) is 1.58 µM; at human TLR8 (hTLR8), 2.5 µM.

For the molecule `CCCCN(CCO)c1nc(N)nc2cn(Cc3c(F)cc(C4CCN(CCO)CC4)cc3OC)nc12` [Compound 35], the EC50 at human TLR7 (hTLR7) was determined as 0.551 µM; at human TLR8 (hTLR8), 1.85 µM.

In the case of `CCCCN(CCO)c1nc(N)nc2cn(Cc3ccc(CN[C@H]4C[C@H](OC)C4)c4c3OCCC4)nc12` [Compound 138], the EC50 on human TLR7 (hTLR7) stood at 1.41 µM; on human TLR8 (hTLR8), 0.608 µM.

As for `CCCCN(CCO)c1nc(N)nc2cn(Cc3cc(OC)c(C4CCN(C5CCOCC5)CC4)cc3OC)nc12` [Compound 108], the EC50 at human TLR7 (hTLR7) came to 1.16 µM; on human TLR8 (hTLR8), 1.88 µM.

Source of the values: US20250282776A1, “Bicyclic TLR7 Agonists and Uses Thereof” (Bristol-Myers Squibb Company, priority 2024, published 2025).
